The values below come from ChEMBL document CHEMBL1201862, “PubChem BioAssay data set” (2004).

Among the test systems are CAKI-1; OVCAR-5; SF-295; OVCAR-4; HCC 2998; BT-549; IGROV-1; T47D; SNB-19; UO-31; A498; HOP-62; SK-MEL-5; SN12C; OVCAR-3; TK-10; Malme-3M; HL-60; NCI-H460; SR.
Holding throughout (assay): NCI anticancer screen, dose series, 48 h

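Compound exposure: 48 hours, 5 concentrations, 96-well plates. GI50 = concentration required for 50% inhibition of growth.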 Active and inactive are the calls of the source. Rule as the data show it: active = GI50 up to about 1.1 µM and inactive = higher.

On to `OCCOCn1nncc1Cn1ncc2c(SCc3ccccc3)ncnc21`, for which the GI50 with CAKI-1 is > 100 µM (inactive); with OVCAR-5 it was > 100 µM (inactive); with SF-295, > 100 µM (inactive); with OVCAR-4, 88.5 µM (inactive); in the assay with HCC 2998, > 100 µM (inactive); in the assay on BT-549, > 100 µM (inactive). In addition, the GI50 was 51.1 µM (inactive) in the assay on IGROV-1; 80.2 µM (inactive) in the assay on T47D; > 100 µM (inactive) in the assay with SNB-19; 66.7 µM (inactive) in the assay on UO-31; > 100 µM (inactive) in the assay with A498; > 100 µM (inactive) in the assay on HOP-62. For the same compound, the GI50 in the assay with SK-MEL-5 is > 100 µM (inactive); in the assay with SN12C it was 59.4 µM (inactive); with OVCAR-3, > 100 µM (inactive); with TK-10 it was > 100 µM (inactive); with Malme-3M, > 100 µM (inactive); in the assay with HL-60, 16.5 µM (inactive). Moreover, the GI50 with NCI-H460 is > 100 µM (inactive).
`CC1(C)C2CCC1(CC(=O)O)C(Cl)C2` (centres undefined): the GI50 in the assay on CAKI-1, in the assay on OVCAR-5, in the assay on SF-295, in the assay with OVCAR-4, with HCC 2998 and in the assay on BT-549 was > 100 µM (inactive) in each case. Besides, the GI50 in the assay on IGROV-1, in the assay on T47D, in the assay on SNB-19, in the assay on UO-31, in the assay on A498 and in the assay on HOP-62 was > 100 µM (inactive) each time. For the same compound, the GI50 in the assay on SK-MEL-5, in the assay with SN12C, in the assay on OVCAR-3, in the assay with TK-10, in the assay with Malme-3M and in the assay on HL-60 was > 100 µM (inactive) throughout. In addition, the GI50 in the assay with NCI-H460 was > 100 µM (inactive).
Take `COc1ccc(OC)c(/C=N/N=C2\C(=O)Nc3c(Cl)cc(Cl)cc32)c1`: the GI50 in the assay with CAKI-1 is 71.3 µM (inactive); in the assay on OVCAR-5 it was > 100 µM (inactive); in the assay with SF-295, 32.1 µM (inactive); in the assay on OVCAR-4, 38.2 µM (inactive); in the assay on HCC 2998 it was > 100 µM (inactive); with BT-549 it was 26.1 µM (inactive). In addition, the GI50 in the assay on IGROV-1 was 34.3 µM (inactive); with SNB-19, > 100 µM (inactive); with UO-31, 41.6 µM (inactive); in the assay with A498, 71.6 µM (inactive); with HOP-62 it was 19 µM (inactive); in the assay on SK-MEL-5 it was 56.1 µM (inactive). In addition, the GI50 in the assay on SR is 25.1 µM (inactive); with SN12C, > 100 µM (inactive); in the assay on OVCAR-3 it was 70.3 µM (inactive); with TK-10, > 100 µM (inactive); in the assay on Malme-3M, > 100 µM (inactive); in the assay on HL-60, 43.8 µM (inactive). Also, the GI50 in the assay with NCI-H460 is 63.5 µM (inactive).
In the case of `Nc1ccc2nc3n(c2c1)C(=O)c1ccccc1-3`, the GI50 in the assay with CAKI-1, with OVCAR-5, in the assay with SF-295, in the assay on OVCAR-4, with HCC 2998 and in the assay with BT-549 was > 100 µM (inactive) throughout. Further, the GI50 with IGROV-1, in the assay on SNB-19, in the assay on UO-31, with SK-MEL-5, in the assay with SR and with SN12C was > 100 µM (inactive) each time. Besides, the GI50 with OVCAR-3, in the assay on TK-10, in the assay with Malme-3M, with HL-60 and in the assay with NCI-H460 was > 100 µM (inactive) throughout.
Turning to `CC(=O)OC1CC2(C)C(OC(C)=O)CC1C2(C)C` (centres undefined), the GI50 in the assay on OVCAR-5, with SF-295, with OVCAR-4, with HCC 2998, with BT-549 and in the assay with IGROV-1 was > 100 µM (inactive) each time. The GI50 in the assay with T47D, in the assay on SNB-19, in the assay with UO-31, with HOP-62, in the assay on SK-MEL-5 and in the assay on SR was > 100 µM (inactive) in each case. Besides, the GI50 in the assay with SN12C, in the assay with OVCAR-3, with TK-10, with Malme-3M, in the assay with HL-60 and with NCI-H460 was > 100 µM (inactive) each time.
`COc1cccc2c1OC(c1ccc(Cl)cc1)C([N+](=O)[O-])=C2` (centres undefined): the GI50 was 3.48 µM (inactive) in the assay with CAKI-1; 2.79 µM (inactive) with OVCAR-5; 3.1 µM (inactive) in the assay on SF-295; 2.17 µM (inactive) in the assay with OVCAR-4; 1.24 µM (inactive) in the assay on BT-549; 2.25 µM (inactive) in the assay with IGROV-1. Moreover, the GI50 in the assay on T47D is 2.34 µM (inactive); in the assay on SNB-19, 4.28 µM (inactive); in the assay on UO-31, 1.77 µM (inactive); in the assay with HOP-62, 2.1 µM (inactive); with SK-MEL-5, 1.53 µM (inactive); in the assay on SR, 0.538 µM (active). Moreover, the GI50 with SN12C is 2.35 µM (inactive); with OVCAR-3, 2.54 µM (inactive); in the assay with TK-10, 4.95 µM (inactive); in the assay with Malme-3M it was 1.87 µM (inactive); in the assay with HL-60 it was > 100 µM (inactive); in the assay with NCI-H460, 1.58 µM (inactive).
Consider `Clc1ccc(CSc2ncnc3c2ncn3C2CCCCO2)cc1` (centres undefined), for which the GI50 is 26.3 µM (inactive) in the assay with CAKI-1; 37.4 µM (inactive) with OVCAR-5; 15.7 µM (inactive) in the assay on SF-295; 25.2 µM (inactive) in the assay on OVCAR-4; 18.6 µM (inactive) in the assay on HCC 2998; 24.3 µM (inactive) with BT-549. For the same compound, the GI50 in the assay with IGROV-1 is 30.3 µM (inactive); in the assay on T47D, 17.4 µM (inactive); in the assay on SNB-19, 34.8 µM (inactive); in the assay with UO-31, 1.88 µM (inactive); in the assay on A498, 16.4 µM (inactive); in the assay on HOP-62, 18.7 µM (inactive). The GI50 was 10.9 µM (inactive) in the assay with SK-MEL-5; 18.3 µM (inactive) with SN12C; 15.7 µM (inactive) in the assay on OVCAR-3; 21.8 µM (inactive) in the assay with TK-10; 17.9 µM (inactive) in the assay with Malme-3M; 16.9 µM (inactive) in the assay with NCI-H460.
For the compound `O=C(C1OC1c1ccc(F)cc1)C12CC3CC(CC(C3)C1)C2` (centres undefined), the GI50 in the assay on CAKI-1 is 25 µM (inactive); in the assay with OVCAR-5 it was 19.6 µM (inactive); in the assay on SF-295, 22.6 µM (inactive); with OVCAR-4, 13.8 µM (inactive); in the assay with HCC 2998, 20.1 µM (inactive); in the assay with BT-549, 15.6 µM (inactive). Also, the GI50 in the assay with IGROV-1 is 19 µM (inactive); in the assay on T47D it was 25.1 µM (inactive); in the assay on SNB-19 it was 33.4 µM (inactive); in the assay with UO-31 it was 20.9 µM (inactive); in the assay on A498, 28.2 µM (inactive); with HOP-62 it was 27 µM (inactive). The GI50 was 16.5 µM (inactive) with SK-MEL-5; 16.4 µM (inactive) in the assay on SN12C; 14.9 µM (inactive) with OVCAR-3; 35.2 µM (inactive) in the assay with TK-10; 21.3 µM (inactive) in the assay on Malme-3M; 4.04 µM (inactive) with HL-60. Besides, the GI50 in the assay with NCI-H460 was 13.3 µM (inactive).
For `COc1ccc(/C(Nc2ccccc2)=C(\CCl)c2ccccc2)cc1OC`, the GI50 in the assay on CAKI-1 is > 100 µM (inactive); with OVCAR-5, > 100 µM (inactive); in the assay with SF-295, 49.2 µM (inactive); in the assay on OVCAR-4 it was 35.7 µM (inactive); in the assay on HCC 2998, 48.1 µM (inactive); with BT-549, 33.2 µM (inactive). Also, the GI50 in the assay with IGROV-1 was > 100 µM (inactive); in the assay on T47D it was 35.5 µM (inactive); in the assay with SNB-19, > 100 µM (inactive); with UO-31, 37.2 µM (inactive); in the assay on A498, > 100 µM (inactive); in the assay on HOP-62, > 100 µM (inactive). Also, the GI50 is 22.2 µM (inactive) in the assay on SK-MEL-5; 36.7 µM (inactive) in the assay with SN12C; 35.7 µM (inactive) in the assay with OVCAR-3; 41.5 µM (inactive) in the assay on TK-10; 37.2 µM (inactive) in the assay on Malme-3M; 18.9 µM (inactive) with HL-60. Moreover, the GI50 in the assay with NCI-H460 was 41.8 µM (inactive).
Turning to `Cc1nc2ccccc2c(=O)n1NC(=O)c1ccccc1O`, the GI50 in the assay with OVCAR-5, in the assay on SF-295, in the assay with OVCAR-4, with HCC 2998, with BT-549 and with IGROV-1 was > 100 µM (inactive) each time. Besides, the GI50 with SNB-19, with UO-31, with A498, in the assay on HOP-62, in the assay with SK-MEL-5 and in the assay on SR was > 100 µM (inactive) in each case. Further, the GI50 in the assay with SN12C, in the assay with OVCAR-3, with TK-10, in the assay on HL-60 and in the assay on NCI-H460 was > 100 µM (inactive) each time.
As to `Cc1[nH]c(=O)c2oc3cc4ccccc4cc3c2c1C(=O)O`, the GI50 is > 10 µM (inactive) in the assay with OVCAR-5; 8.99 µM (inactive) with SF-295; > 10 µM (inactive) in the assay on OVCAR-4; > 10 µM (inactive) with HCC 2998; > 10 µM (inactive) in the assay with BT-549; > 10 µM (inactive) in the assay on IGROV-1. Further, the GI50 with T47D, in the assay on SNB-19, with UO-31, in the assay with SR, in the assay on SN12C and with OVCAR-3 was > 10 µM (inactive) in each case. For the same compound, the GI50 in the assay with TK-10, in the assay with Malme-3M, with HL-60 and in the assay on NCI-H460 was > 10 µM (inactive) each time.
